15 molecules from patent US20220340597A1, “HEXAHYDRO-1H-PYRAZINO[1,2-A]PYRAZINE COMPOUNDS FOR THE TREATMENT OF AUTOIMMUNE DISEASE” (Hoffmann-La Roche Inc., priority 2019, published 2022) can be followed below.

One assay addresses T1, human TLR8 (Homo sapiens, UniProt Q9NR97).
T1 sequence (Q9NR97 27-1041): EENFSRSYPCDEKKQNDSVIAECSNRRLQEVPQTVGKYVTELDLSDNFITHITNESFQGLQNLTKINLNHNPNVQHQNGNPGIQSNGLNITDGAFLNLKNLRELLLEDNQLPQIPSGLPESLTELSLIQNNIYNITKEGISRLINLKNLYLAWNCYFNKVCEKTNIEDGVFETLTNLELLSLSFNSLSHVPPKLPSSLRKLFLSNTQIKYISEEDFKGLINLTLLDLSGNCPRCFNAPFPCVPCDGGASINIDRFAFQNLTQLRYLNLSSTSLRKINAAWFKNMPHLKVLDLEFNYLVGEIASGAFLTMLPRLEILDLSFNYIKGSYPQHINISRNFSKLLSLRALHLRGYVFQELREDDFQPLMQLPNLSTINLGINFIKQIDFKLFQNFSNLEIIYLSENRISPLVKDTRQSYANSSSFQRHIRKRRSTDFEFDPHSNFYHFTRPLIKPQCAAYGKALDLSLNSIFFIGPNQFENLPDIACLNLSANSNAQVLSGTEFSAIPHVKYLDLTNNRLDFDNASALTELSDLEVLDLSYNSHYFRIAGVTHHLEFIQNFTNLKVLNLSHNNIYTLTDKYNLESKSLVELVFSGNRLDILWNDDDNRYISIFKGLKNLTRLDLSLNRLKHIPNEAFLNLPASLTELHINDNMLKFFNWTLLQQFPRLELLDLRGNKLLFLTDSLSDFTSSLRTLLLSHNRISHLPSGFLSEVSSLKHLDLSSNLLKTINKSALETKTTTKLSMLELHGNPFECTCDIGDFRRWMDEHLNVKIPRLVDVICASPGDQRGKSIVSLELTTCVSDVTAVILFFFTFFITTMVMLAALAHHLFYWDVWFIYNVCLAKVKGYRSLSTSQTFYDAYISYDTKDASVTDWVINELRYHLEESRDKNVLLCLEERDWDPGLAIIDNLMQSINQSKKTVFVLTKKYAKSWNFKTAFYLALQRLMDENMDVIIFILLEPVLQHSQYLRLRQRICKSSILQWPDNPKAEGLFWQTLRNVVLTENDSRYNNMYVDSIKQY
Description: HEK293-Blue-hTLR-8 cells assay.

The target in a further assay is T2, human TLR7 (Homo sapiens, UniProt Q9NYK1).
T2 construct: host or cells: HEK293 (HEK-Blue hTLR7)
T2 sequence (Q9NYK1 27-1049): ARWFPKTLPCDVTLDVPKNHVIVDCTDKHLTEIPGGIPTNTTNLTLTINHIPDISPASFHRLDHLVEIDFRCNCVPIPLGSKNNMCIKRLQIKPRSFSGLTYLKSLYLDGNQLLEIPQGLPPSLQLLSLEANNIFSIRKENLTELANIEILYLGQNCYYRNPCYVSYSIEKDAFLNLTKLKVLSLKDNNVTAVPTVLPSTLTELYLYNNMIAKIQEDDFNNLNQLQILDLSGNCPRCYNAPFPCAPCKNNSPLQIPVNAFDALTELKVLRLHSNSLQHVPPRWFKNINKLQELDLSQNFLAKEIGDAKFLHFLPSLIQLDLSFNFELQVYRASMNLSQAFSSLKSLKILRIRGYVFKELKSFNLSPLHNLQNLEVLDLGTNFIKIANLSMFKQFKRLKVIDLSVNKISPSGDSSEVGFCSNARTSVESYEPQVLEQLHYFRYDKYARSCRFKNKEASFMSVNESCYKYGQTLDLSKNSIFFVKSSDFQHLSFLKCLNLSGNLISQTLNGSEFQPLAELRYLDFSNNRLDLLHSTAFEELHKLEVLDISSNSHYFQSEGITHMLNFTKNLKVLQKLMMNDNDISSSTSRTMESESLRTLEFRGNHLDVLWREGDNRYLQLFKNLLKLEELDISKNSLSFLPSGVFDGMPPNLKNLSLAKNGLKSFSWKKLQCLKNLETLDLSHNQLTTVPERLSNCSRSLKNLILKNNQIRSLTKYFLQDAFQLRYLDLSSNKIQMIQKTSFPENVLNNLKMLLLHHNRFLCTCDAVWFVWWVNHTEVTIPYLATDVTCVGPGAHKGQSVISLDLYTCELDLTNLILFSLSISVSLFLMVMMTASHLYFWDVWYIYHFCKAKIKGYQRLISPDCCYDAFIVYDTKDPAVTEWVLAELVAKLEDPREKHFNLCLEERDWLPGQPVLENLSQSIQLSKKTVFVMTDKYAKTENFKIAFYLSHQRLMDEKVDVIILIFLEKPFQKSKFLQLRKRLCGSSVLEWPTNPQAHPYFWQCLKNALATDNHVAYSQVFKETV
Put plainly: HEK293-Blue-hTLR-7 cells assay. Particulars: HEK293-Blue-hTLR7 cells, R848 stimulation, 20 hrs, SEAP reporter; read-out: HEK/hTLR7 IC50. The class given is cell-based.

Description for human TLR8: The following tests were carried out in order to determine the activity of the compounds of formula (I) and (Ia) in HEK293-Blue-hTLR-7/8/9 cells assay.
HEK293-Blue-hTLR-8 Cells Assay:
A stable HEK293-Blue-hTLR-8 cell line was purchased from InvivoGen (Cat. #: hkb-htlr8, San Diego, Calif., USA). These cells were originally designed for studying the stimulation of human TLR8 by monitoring the activation of NF-κB. A SEAP (secreted embryonic alkaline phosphatase) reporter gene was placed under the control of the IFN-β minimal promoter fused to five NF-κB and AP-1-binding sites. The SEAP was induced by activating NF-κB and AP-1 via stimulating HEK-Blue hTLR8 cells with TLR8 ligands. Therefore, the reporter expression was declined by TLR8 antagonist under the stimulation of a ligand, such as R848, for incubation of 20 hrs. The cell culture supernatant SEAP reporter activity was determined using QUANTI-Blue™ kit (Cat. #: rep-qb1, Invivogen, San Diego, Calif., USA) at a wavelength of 640 nm, a detection medium that turns purple or blue in the presence of alkaline phosphatase.

Regarding `[2H]c1ccc2c(N3C[C@@H]4CN(c5ncc(N6C[C@H]7NCCO[C@@H]7C6)cc5C)CCN4[C@H](C)C3)ccc(C#N)c2n1` [Example 100, 5-[(4R,9aR)-8-[5-[(4aR,7aR)-3,4,4a,5,7,7a-hexahydro-2H-pyrrolo[3,4-b][1,4]oxazin-6-yl]-3-methyl-2-pyridyl]-4-methyl-3,4,6,7,9,9a-hexahydro-1H-pyrazino[1,2-a]pyrazin-2-yl]-2-deuterio-quinoline-8-carbonitrile], the IC50 against human TLR8 came out at 3 nM; at human TLR7 it was 1 nM.
Consider `[2H]c1ccc2c(N3C[C@@H]4CN(Cc5ccc(N[C@H]6CNC[C@H]6F)nc5C)CCN4[C@H](C)C3)ccc(C#N)c2n1` [Example 82, 5-[(4R,9aS)-8-[[6-[[(3S,4R)-4-fluoropyrrolidin-3-yl]amino]-2-methyl-3-pyridyl]methyl]-4-methyl-3,4,6,7,9,9a-hexahydro-JH-pyrazino[1,2-a]pyrazin-2-yl]-2-deuterio-quinoline-8-carbonitrile], for which the IC50 against human TLR8 was determined as 3 nM; on human TLR7, 12 nM.
With `[2H]c1ccc2c(N3C[C@@H]4CN(Cc5ccc(N6C[C@H]7NCCO[C@@H]7C6)nc5C)CCN4[C@H](C)C3)ccc(C#N)c2n1` [Example 98, 5-[(4R,9aS)-8-[[6-[(4aR,7aR)-3,4,4a,5,7,7a-hexahydro-2H-pyrrolo[3,4-b][1,4]oxazin-6-yl]-2-methyl-3-pyridyl]methyl]-4-methyl-3,4,6,7,9,9a-hexahydro-1H-pyrazino[1,2-a]pyrazin-2-yl]-2-deuterio-quinoline-8-carbonitrile], the IC50 on human TLR8 worked out at 10 nM; on human TLR7, 24 nM.
As to `C[C@@H]1CN(c2ccc(C#N)c3ncccc23)C[C@@H]2CN(Cc3ccc4c(c3)CNCC4)CCN21` (relative stereo) [Example 1], the IC50 on human TLR8 amounted to 10 nM; on human TLR7 it was 17 nM.
With `Cc1nc(N2CCN[C@H](C)C2)ccc1CN1CCN2[C@@H](C1)CN(c1ccc(C#N)c3ncccc13)C[C@H]2C` [Example 86, 5-[(4R,9aS)-4-methyl-8-[[2-methyl-6-[(3R)-3-methylpiperazin-1-yl]-3-pyridyl]methyl]-3,4,6,7,9,9a-hexahydro-1H-pyrazino[1,2-a]pyrazin-2-yl]quinoline-8-carbonitrile], the figures for the IC50 against human TLR8 and on human TLR7 were 12 nM and 15 nM, respectively.
For `[2H]c1ccc2c(N3C[C@@H]4CN(Cc5ccc(N6C[C@@H]7C[C@H]6CN7)nc5C)CCN4[C@H](C)C3)ccc(C#N)c2n1` [Example 92, 5-[(4R,9aS)-8-[[6-[(1S,4S)-2,5-diazabicyclo[2.2.1]heptan-2-yl]-2-methyl-3-pyridyl]methyl]-4-methyl-3,4,6,7,9,9a-hexahydro-1H-pyrazino[1,2-a]pyrazin-2-yl]-2-deuterio-quinoline-8-carbonitrile] the same measures were 9 nM and 6 nM.
For `C[C@@H]1CN(c2ccc(C#N)c3ncccc23)C[C@@H]2CN(Cc3ccnc(N4CCNCC4)c3)CCN21` (relative stereo) [Example 3] the same measures were 12 nM and 20 nM.
Take `[2H]c1ccc2c(N3C[C@@H]4CN(CCc5ccc(N6CC[C@@](C)(N)C6)nc5)CCN4[C@H](C)C3)ccc(C#N)c2n1` [Example 84, 5-[(4R,9aS)-8-[2-[6-[(3R)-3-amino-3-methyl-pyrrolidin-1-yl]-3-pyridyl]ethyl]-4-methyl-3,4,6,7,9,9a-hexahydro-1H-pyrazino[1,2-a]pyrazin-2-yl]-2-deuterio-quinoline-8-carbonitrile]: the IC50 at human TLR8 amounted to 19 nM; at human TLR7 it was 16 nM.
For `[2H]c1ccc2c(N3C[C@@H]4CN(Cc5ccc(N6CC7(CN(C)C7)C6)nc5C)CCN4[C@H](C)C3)ccc(C#N)c2n1` [Example 80, 5-[(4R,9aS)-4-methyl-8-[[2-methyl-6-(6-methyl-2,6-diazaspiro[3.3]heptan-2-yl)-3-pyridyl]methyl]-3,4,6,7,9,9a-hexahydro-1H-pyrazino[1,2-a]pyrazin-2-yl]-2-deuterio-quinoline-8-carbonitrile] the same measures were 5 nM and 23 nM.
For `[2H]c1ccc2c(N3C[C@@H]4CN(c5ncc(N6CC[C@@](C)(N)C6)cc5C)CCN4[C@H](C)C3)ccc(C#N)c2n1` [Example 97, 5-[(4R,9aR)-8-[5-[(3R)-3-amino-3-methyl-pyrrolidin-1-yl]-3-methyl-2-pyridyl]-4-methyl-3,4,6,7,9,9a-hexahydro-1H-pyrazino[1,2-a]pyrazin-2-yl]-2-deuterio-quinoline-8-carbonitrile] the same measures were 4 nM and 2 nM.
For the molecule `[2H]c1ccc2c(N3C[C@@H]4CN(Cc5nc(N6CCNCC6)ccc5C)CCN4[C@H](C)C3)ccc(C#N)c2n1` [Example 88, 5-[(4R,9aS)-4-methyl-8-[(3-methyl-6-piperazin-1-yl-2-pyridyl)methyl]-3,4,6,7,9,9a-hexahydro-1H-pyrazino[1,2-a]pyrazin-2-yl]-2-deuterio-quinoline-8-carbonitrile], the IC50 at human TLR8 stood at 10 nM; on human TLR7, 40 nM.
For the molecule `[2H]c1ccc2c(N3C[C@@H]4CN(Cc5cnc(N6CCNCC6)cc5C)CCN4[C@H](C)C3)ccc(C#N)c2n1` [Example 87, 5-[(4R,9aS)-4-methyl-8-[(4-methyl-6-piperazin-1-yl-3-pyridyl)methyl]-3,4,6,7,9,9a-hexahydro-1H-pyrazino[1,2-a]pyrazin-2-yl]-2-deuterio-quinoline-8-carbonitrile], the IC50 at human TLR8 is 15 nM; on human TLR7, 17 nM.
For `[2H]c1ccc2c(N3C[C@@H]4CN(c5ncc(N6C[C@@H](N)[C@H](OC)C6)cc5C)CCN4[C@H](C)C3)ccc(C#N)c2n1` [Example 99, 5-[(4R,9aR)-8-[5-[(3R,4R)-3-amino-4-methoxy-pyrrolidin-1-yl]-3-methyl-2-pyridyl]-4-methyl-3,4,6,7,9,9a-hexahydro-1H-pyrazino[1,2-a]pyrazin-2-yl]-2-deuterio-quinoline-8-carbonitrile] the same measures were 2 nM and 1 nM.
For `Cc1cc(N2CCNCC2)cnc1N1CCN2[C@@H](C1)CN(c1cc(=O)n(C)c3ncccc13)C[C@H]2C` [Example 93, 4-[(4R,9aR)-4-methyl-8-(3-methyl-5-piperazin-1-yl-2-pyridyl)-3,4,6,7,9,9a-hexahydro-1H-pyrazino[1,2-a]pyrazin-2-yl]-1-methyl-1,8-naphthyridin-2-one] the same measures were 61 nM and 10 nM.
For `[2H]c1ccc2c(N3C[C@@H]4CN(Cc5ccc(N6CC[C@@](C)(N)C6)nc5C)CCN4[C@H](C)C3)ccc(C#N)c2n1` [Example 81, 5-[(4R,9aS)-8-[[6-[(3R)-3-amino-3-methyl-pyrrolidin-1-yl]-2-methyl-3-pyridyl]methyl]-4-methyl-3,4,6,7,9,9a-hexahydro-1H-pyrazino[1,2-a]pyrazin-2-yl]-2-deuterio-quinoline-8-carbonitrile] the same measures were 5 nM and 16 nM.
